Measurements from US4826982A, “Quinolonecarboxylic acid derivatives” (Kyorin Pharmaceutical Co., Ltd., priority 1985, dated 1989).
≈ marks a conversion by molar mass, not a printed value.

How the values were obtained:
Pst. micros UPI 5464-1 = assay: Antibacterial spectrum, MIC; conditions: Parvimonas micra, UPI54641
[1] = test system: Veillonella parvula KYA 10790; assay: Antibacterial spectrum, MIC; conditions: KYA10790
K. pneumoniae 1-220S = assay: Antibacterial spectrum, MIC; format: cell-based; conditions: Klebsiella pneumoniae, 1220S; 10^6 cells/ml; Gram -; standard strain
Excerpt: (§1) In vitro antibacterial activity (standard strains)
(§2) Organism (10^6 cells/ml)

[2] = test system: S. aureus IID 670 (Terajima); assay: Antibacterial spectrum, MIC; format: cell-based; conditions: Staphylococcus aureus, IID670; 10^6 cells/ml; Gram +; standard strain
Excerpt: as §1, §2

[3] = test system: Escherichia coli NIHJ JC-2; assay: Antibacterial spectrum, MIC; format: cell-based; conditions: NIHJJC2, 10^6 cells/ml, Gram -, standard strain
Excerpt: as §1, §2

B. distasonis 8503 = assay: Antibacterial spectrum, MIC; format: cell-based; conditions: Parabacteroides distasonis, 10^6 cells/ml, Gram -, standard strain
Excerpt: as §1, §2

B. fragilis 25285 = assay: Antibacterial spectrum, MIC; format: cell-based; conditions: Bacteroides fragilis, 10^6 cells/ml, Gram -, standard strain
Excerpt: as §1, §2

S. epidermidis IID 866 = assay: Antibacterial spectrum, MIC; format: cell-based; conditions: Staphylococcus epidermidis, IID866; 10^6 cells/ml; Gram +; standard strain
Excerpt: as §1, §2

[4] = test system: Staphylococcus aureus 209 P; assay: Antibacterial spectrum, MIC; format: cell-based; conditions: 10^6 cells/ml, Gram +, standard strain
Excerpt: as §1, §2

B. fragilis 0558 = assay: Antibacterial spectrum, MIC; format: cell-based; conditions: Bacteroides fragilis, 10^6 cells/ml, Gram -, standard strain
Excerpt: as §1, §2

[5] = test system: Acinetobacter anitratus IID 876; assay: Antibacterial spectrum, MIC; format: cell-based; conditions: Acinetobacter calcoaceticus, IID876; 10^6 cells/ml; Gram -; standard strain
Excerpt: as §1, §2

Shigella sonnei IID 969 = assay: Antibacterial spectrum, MIC; format: cell-based; conditions: IID969, 10^6 cells/ml, Gram -, standard strain
Excerpt: as §1, §2

[6] = test system: Bacteroides fragilis GM 7000; assay: Antibacterial spectrum, MIC; conditions: GM7000
[7] = test system: Pseudomonas aeruginosa V-1; assay: Antibacterial spectrum, MIC; conditions: V1
[8] = test system: Yersinia enterocolitica IID 981; assay: microbe, parasite or virus in culture; format: cell-based; conditions: IID981
[9] = test system: Propionibacterium acens 11828; assay: Antibacterial spectrum, MIC; format: cell-based
P. aeruginosa IFO 12689 = assay: microbe, parasite or virus in culture; conditions: Pseudomonas aeruginosa, IFO12689
[10] = test system: Clostridium perfringens KYA 13123; assay: microbe, parasite or virus in culture; conditions: KYA13123
C. ramosum = assay: Antibacterial spectrum, MIC; format: cell-based; conditions: Thomasclavelia ramosa; 10^6 cells/ml; Gram +; standard strain; read-out: MIC
[11] = test system: Eubacterium lentum GAI 5242; assay: microbe, parasite or virus in culture; conditions: Eggerthella lenta, GAI5242
[12] = test system: Klebsiella pneumoniae KY(GN)6445; assay: Antibacterial spectrum, MIC; format: cell-based; conditions: 10^6 cells/ml, Gram -, standard strain
Excerpt: as §1, §2

[13] = test system: Proteus vulgaris IFO 3167; assay: Antibacterial spectrum, MIC; format: cell-based; conditions: IFO3167, 10^6 cells/ml, Gram -, standard strain
Excerpt: as §1, §2

[14] = test system: Salmonella enteritidis IID 604; assay: Antibacterial spectrum, MIC; format: cell-based; conditions: Salmonella enterica; 10^6 cells/ml; Gram -; standard strain
Excerpt: as §1, §2

[15] = test system: Citrobacter freundii IID 976; assay: Antibacterial spectrum, MIC; format: cell-based; conditions: IID976, 10^6 cells/ml, Gram -, standard strain
Excerpt: as §1, §2

[16] = test system: Enterobacter cloacae IID 977; assay: Antibacterial spectrum, MIC; format: cell-based; conditions: IID977, 10^6 cells/ml, Gram -, standard strain
Excerpt: as §1, §2

E. coli ATCC l0536 = assay: Antibacterial spectrum, MIC; format: cell-based; conditions: Escherichia coli, ATCCL0536
Excerpt: as §1, §2

[17] = test system: Streptococcus pyogenes (S-8); assay: Antibacterial spectrum, MIC; format: cell-based; conditions: 10^6 cells/ml, Gram +, standard strain
Excerpt: as §1, §2

[18] = test system: Serratia marcescens IID 618; assay: Antibacterial spectrum, MIC; format: cell-based; conditions: IID618, 10^6 cells/ml, Gram -, standard strain
Excerpt: as §1, §2

P. mirabilis IID 994 = assay: Antibacterial spectrum, MIC; format: cell-based; conditions: Proteus mirabilis, IID994; 10^6 cells/ml; Gram -; standard strain
Excerpt: as §1, §2

[19] = test system: Alcaligenes faecalis 0114002; assay: Antibacterial spectrum, MIC; format: cell-based; conditions: 10^6 cells/ml, Gram -, standard strain
Excerpt: as §1, §2

S. pneumoniae IID 552 = assay: Antibacterial spectrum, MIC; format: cell-based; conditions: Streptococcus pneumoniae, IID552; 10^6 cells/ml; Gram +; standard strain
Excerpt: as §1, §2

[20] = test system: Fusobacterium necrophorum S-45; assay: Antibacterial spectrum, MIC; format: cell-based; conditions: S45, 10^6 cells/ml, Gram -, standard strain
Excerpt: as §1, §2

E. faecalis IID 682 = assay: Antibacterial spectrum, MIC; format: cell-based; conditions: Enterococcus faecalis, IID682; 10^6 cells/ml; Gram +; standard strain
Excerpt: as §1, §2

[21] = test system: B. thetaiotaomicron (0661); assay: Antibacterial spectrum, MIC; format: cell-based; conditions: Bacteroides thetaiotaomicron; 10^6 cells/ml; Gram -; standard strain; read-out: MIC
S. pyogenes IID 692 = assay: microbe, parasite or virus in culture; conditions: Streptococcus pyogenes, IID692
[22] = test system: Peptococcus magnus KY 017; assay: microbe, parasite or virus in culture; conditions: Finegoldia magna, KY017
[23] = test system: Morganella morganii IID 602; assay: Antibacterial spectrum, MIC; format: cell-based; conditions: IID602
F. varium KYA 8501 = assay: Antibacterial spectrum, MIC; format: cell-based; conditions: Fusobacterium varium, KYA8501; 10^6 cells/ml; Gram -; standard strain; read-out: MIC
[24] = test system: Peptostreptococcus anaerobius KYA 27337; assay: Antibacterial spectrum, MIC; format: cell-based; conditions: KYA27337
[25] = test system: Bacillus subtilis PCI 219; assay: Antibacterial spectrum, MIC by method recommended by Japan Society of Chemotherapy; format: cell-based; conditions: PCI219, 10^6 cells/ml, Gram +, standard strain
Excerpt: as §1, §2

Compound: O=C(O)c1cn(C2CC2)c2cc(N3CCNCC3)c(F)cc2c1=O [CPFX, ciprofloxacin, reference compound]
- MIC (Pst. micros UPI 5464-1): 0.2 µg/mL (≈ 0.604 µM)
- MIC [1]: 0.2 µg/mL (≈ 0.604 µM)
- MIC (K. pneumoniae 1-220S): 0.05 µg/mL (≈ 0.151 µM)
- MIC [2]: 0.2 µg/mL (≈ 0.604 µM)
- MIC [3]: ≤ 0.0063 µg/mL
- MIC (B. distasonis 8503): 6.25 µg/mL (≈ 18.9 µM)
- MIC (B. fragilis 25285): 6.25 µg/mL (≈ 18.9 µM)
- MIC (S. epidermidis IID 866): 0.2 µg/mL (≈ 0.604 µM)
- MIC [4]: 0.2 µg/mL (≈ 0.604 µM)
- MIC (B. fragilis 0558): 3.13 µg/mL (≈ 9.45 µM)
- MIC [5]: 0.2 µg/mL (≈ 0.604 µM)
- MIC (Shigella sonnei IID 969): 0.0063 µg/mL (≈ 0.019 µM)
- MIC [6]: 6.25 µg/mL (≈ 18.9 µM)
- MIC [7]: 0.05 µg/mL (≈ 0.151 µM)

Compound: CC1COc2c(N3CCN(C)CC3)c(F)cc3c(=O)c(C(=O)O)cn1c23 (stereo not drawn) [OFLX, ofloxacin, reference compound]
- MIC (Pst. micros UPI 5464-1): 0.78 µg/mL (≈ 2.16 µM)
- MIC [8]: 0.2 µg/mL (≈ 0.553 µM)
- MIC [1]: 0.78 µg/mL (≈ 2.16 µM)
- MIC [9]: 12.5 µg/mL (≈ 34.6 µM)
- MIC (P. aeruginosa IFO 12689): 3.13 µg/mL (≈ 8.66 µM)
- MIC [10]: 0.78 µg/mL (≈ 2.16 µM)
- MIC (C. ramosum): 12.5 µg/mL (≈ 34.6 µM)
- MIC [11]: 0.78 µg/mL (≈ 2.16 µM)
- MIC [12]: 0.05 µg/mL (≈ 0.138 µM)
- MIC [13]: 0.05 µg/mL (≈ 0.138 µM)
- MIC [14]: 0.1 µg/mL (≈ 0.277 µM)
- MIC (K. pneumoniae 1-220S): 0.2 µg/mL (≈ 0.553 µM)
- MIC [15]: 0.1 µg/mL (≈ 0.277 µM)
- MIC [2]: 0.39 µg/mL (≈ 1.08 µM)
- MIC [16]: 0.1 µg/mL (≈ 0.277 µM)
- MIC [3]: ≤ 0.025 µg/mL
- MIC (B. distasonis 8503): 6.25 µg/mL (≈ 17.3 µM)
- MIC (E. coli ATCC l0536): 0.05 µg/mL (≈ 0.138 µM)
- MIC [17]: 1.56 µg/mL (≈ 4.32 µM)
- MIC (B. fragilis 25285): 1.56 µg/mL (≈ 4.32 µM)
- MIC [18]: 0.1 µg/mL (≈ 0.277 µM)
- MIC (S. epidermidis IID 866): 0.39 µg/mL (≈ 1.08 µM)
- MIC (P. mirabilis IID 994): 0.05 µg/mL (≈ 0.138 µM)
- MIC [19]: 0.78 µg/mL (≈ 2.16 µM)
- MIC [4]: 0.2 µg/mL (≈ 0.553 µM)
- MIC (S. pneumoniae IID 552): 1.56 µg/mL (≈ 4.32 µM)
- MIC (B. fragilis 0558): 1.56 µg/mL (≈ 4.32 µM)
- MIC [5]: 0.2 µg/mL (≈ 0.553 µM)
- MIC (Shigella sonnei IID 969): 0.05 µg/mL (≈ 0.138 µM)
- MIC [20]: 1.56 µg/mL (≈ 4.32 µM)
- MIC (E. faecalis IID 682): 1.56 µg/mL (≈ 4.32 µM)
- MIC [6]: 3.13 µg/mL (≈ 8.66 µM)
- MIC [21]: 6.25 µg/mL (≈ 17.3 µM)
- MIC (S. pyogenes IID 692): 3.13 µg/mL (≈ 8.66 µM)
- MIC [22]: 0.78 µg/mL (≈ 2.16 µM)
- MIC [23]: 0.1 µg/mL (≈ 0.277 µM)
- MIC (F. varium KYA 8501): 12.5 µg/mL (≈ 34.6 µM)
- MIC [7]: 0.39 µg/mL (≈ 1.08 µM)
- MIC [24]: 3.13 µg/mL (≈ 8.66 µM)
- MIC [25]: 0.1 µg/mL (≈ 0.277 µM)
